Assay results as given in patent publication US20140135270A1, “MACROCYCLIC COMPOUNDS FOR INHIBITION OF INHIBITORS OF APOPTOSIS” (Ensemble Therapeutics Corp., priority 2012, published 2014).
Like-named read-outs stand apart in the source and are kept apart here.

Tests used:
[1] = molecular target: T1, His-BIR2 (124-240/C202A/C213G) (Homo sapiens, UniProt P98170, C202A/C213G); test: XIAP-BIR2/SMAC Peptide AlphaScreen Assay; assay type: binding
T1 construct: additions of His-BIR2 (124-240/C202A/C213G), Biotinylated SMAC peptide
Experimental: C. XIAP-BIR2/SMAC Peptide AlphaScreen Assay
Assays were performed in white, flat-bottom, 384-well ProxiPlates (Perkin Elmer). […]. The reaction was incubated at room temperature for 60 minutes. After 60 minutes, 2.5 μL of Alphascreen detection reagent (Perkin Elmer) was added to the reaction mixture and incubated at room temperature in the dark for 120 minutes. The Alphascreen signal generated by the reaction was detected on the Envision Plate Reader. Inhibition data were calculated from an Alphascreen signal generated by the no protein control reactions for 100% inhibition and vehicle-only reactions for 0% inhibition. […]
Biotinylated SMAC peptide, 4 μg/mL Alphascreen detection reagents, and 0.5% DMSO. Dose response curves were generated to determine the concentration required for inhibiting 50% of the activity (IC50). Compounds were dissolved at 10 mM in dimethylsulfoxide (DMSO) and evaluated at eleven concentrations. IC50 values were derived by non-linear regression analysis.

[2] = molecular target: T2, N-His-Tb-BIR3(241-356, XIAP) (Homo sapiens, UniProt P98170); test: XIAP-BIR3 SMAC Peptide Fluorescence Polarization Assay (FPA); assay type: binding
T2 construct: additions of N-His-Tb-BIR3(241-356, XIAP), fluoresceinated modified SMAC peptide; Tb (meaning not explained; sits between His tag and BIR3) (N)
Experimental: A. XIAP-BIR3 SMAC Peptide Fluorescence Polarization Assay (FPA) Assays were performed in black, flat-bottom, 384-well plates. The final assay volume was 50 μL prepared from additions of N-His-Tb-BIR3(241-356, XIAP), fluoresceinated modified SMAC peptide, and test compounds in assay buffer consisting of 20 mM Sodium Phosphate, 1 mM EDTA, 50 mM NaCl, and 0.05% Pluronic F68. The reaction was incubated at room temperature for 60 minutes and fluorescence polarization of the reaction was detected on the LJL Plate Reader. Inhibition data were calculated from mP values generated by the no protein control reactions for 100% inhibition and vehicle-only reactions for 0% inhibition. The final concentration of reagents in the assay was 130 nM N-His-Tb-BIR3(241-356, XIAP), 1.4 nM fluoresceinated modified SMAC peptide, and 1% DMSO. Dose response curves were generated to determine the concentration required for inhibiting 50% of polarization activity (IC50). Compounds were dissolved at 10 mM in dimethylsulfoxide (DMSO) and evaluated at eleven concentrations. IC50 values were derived by non-linear regression analysis.

[3] = the molecule shown is the open-chain precursor, rcm bond, 38-membered ring, DCE
His-BIR3 (241-356, XIAP) = molecular target: T3, His-BIR3 (241-356, XIAP) (Homo sapiens, UniProt P98170); test: XIAP-BIR3/SMAC Homogeneous Time Resolved Fluorescence (HTRF) Assay; assay type: binding; details: fluorescein labeled SMAC peptide
T3 construct: additions of His-BIR3 (241-356, XIAP), fluorescein labeled SMAC peptide

[4] = molecular target: T4, His-BIR2-3 (125-356, C202A/C213G, XIAP) (Homo sapiens, UniProt P98170, C202A/C213G); test: XIAP-BIR2-3 Dimeric SMAC Peptide Homogeneous Time Resolved Fluorescence (HTRF) Assay; assay type: binding; details: fluorescein labeled dimeric SMAC peptide
T4 construct: additions of His-BIR2-3 (125-356, C202A/C213G, XIAP), fluorescein labeled dimeric SMAC peptide

[5] = biotinylated SMAC peptide, read-out: BIR2 ALPHA IC50
[6] = read-out: BIR3 FPA IC50, fluorescence polarization, fluoresceinated modified SMAC peptide
[7] = read-out: BIR2 ALPHA IC50, biotinylated SMAC peptide
[8] = fluorescence polarization, fluoresceinated modified SMAC peptide, read-out: BIR3 FPA IC50

T1 sequence (P98170 124-240 C202A/C213G): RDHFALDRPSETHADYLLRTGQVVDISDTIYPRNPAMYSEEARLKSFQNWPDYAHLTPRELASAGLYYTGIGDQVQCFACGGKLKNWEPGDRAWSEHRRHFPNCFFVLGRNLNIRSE
T2 sequence (P98170 241-356): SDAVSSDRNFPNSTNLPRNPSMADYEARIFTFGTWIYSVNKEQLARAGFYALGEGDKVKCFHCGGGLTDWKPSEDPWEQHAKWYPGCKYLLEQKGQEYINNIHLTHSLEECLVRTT
T3 sequence (P98170 241-356): as above
T4 sequence (P98170 125-356 C202A/C213G): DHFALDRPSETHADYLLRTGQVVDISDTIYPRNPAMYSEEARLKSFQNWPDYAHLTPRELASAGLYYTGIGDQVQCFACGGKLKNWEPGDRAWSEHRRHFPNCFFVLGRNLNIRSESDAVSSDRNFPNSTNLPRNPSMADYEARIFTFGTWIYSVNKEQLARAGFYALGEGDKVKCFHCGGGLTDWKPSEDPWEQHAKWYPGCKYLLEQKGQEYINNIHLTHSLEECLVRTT

Molecule	IC50 [1, 5]	IC50 [2]	also measured
CN[C@@H](C)C(=O)N[C@H](C(=O)N1C[C@@H]2C[C@H]1C(=O)N[C@@H](Cc1ccc3ccccc3c1)C(=O)N[C@H](C(=O)O)C/C=C/CO[C@H]1C[C@@H](C(=O)N[C@@H](Cc3ccc4ccccc4c3)C(=O)N[C@H](C(=O)O)Cc3ccc(cc3)C(=O)N2)N(C(=O)[C@@H](NC(=O)[C@H](C)NC)C(C)(C)C)C1)C(C)(C)C [Example 40]	0.0442 µM	0.0263 µM	
CN[C@@H](C)C(=O)N[C@H](C(=O)N1C[C@@H]2C[C@H]1C(=O)N[C@@H](Cc1ccc3ccccc3c1)C(=O)N[C@H](C(=O)O)COC/C=C/CO[C@H]1C[C@@H](C(=O)N[C@@H](Cc3ccc4ccccc4c3)C(=O)N[C@H](C(=O)O)CCC(=O)N2)N(C(=O)[C@@H](NC(=O)[C@H](C)NC)C(C)(C)C)C1)C(C)(C)C [Example 34]	0.0336 µM	0.0401 µM	
(S)-tert-Butyl 2-((S)-2-((2S,4S)-4-allyl-1-((S)-2-((S)-2-((tert-butoxycarbonyl)(methyl)amino)propanamido)-3,3-dimethylbutanoyl)pyrrolidine-2-carboxamido)-3-(naphthalen-2-yl)propanamido)-3-(4-((1-((3R,5S)-5-(((S)-1-(((S)-2-(4-(allyloxy)phenyl)-1-(1-trityl-1H-tetrazol-5-yl)ethyl)amino)-3-(naphthalen-2-yl)-1-oxopropan-2-yl)carbamoyl)-1-((S)-2-((S)-2-((tert-butoxycarbonyl)(methyl)amino)propanamido)-3,3-dimethylbutanoyl)pyrrolidin-3-yl)-1H-1,2,3-triazol-4-yl)methoxy)phenyl)propanoate			ring closure, isolated yield ([3]; Hoveyda-Grubbs II (2 portions), 2.34 mM, 70.0 °C): 48%
CNC(C)C(=O)NC(C(=O)N1CC2CC1C(=O)NC(Cc1ccc3ccccc3c1)C(=O)NC(C(=O)O)Cc1ccc(cc1)OCC=CCOC1CC(C(=O)NC(Cc3ccc4ccccc4c3)C(=O)NC(C(=O)O)CCCC(=O)N2)N(C(=O)C(NC(=O)C(C)NC)C(C)(C)C)C1)C(C)(C)C (stereo not shown) [Example 36]	0.0388 µM		IC50 [2, 6]: 0.049 µM
(S)-Methyl 2-((S)-2-((2S,4S)-4-allyl-1-((S)-2-((S)-2-((tert-butoxycarbonyl)(methyl)amino)propanamido)-3,3-dimethylbutanoyl)pyrrolidine-2-carboxamido)-3-(naphthalen-2-yl)propanamido)-3-(4-(((E)-4-((3S,5S)-5-(((S)-1-(((S)-3-(4-(allyloxy)phenyl)-1-(cyclopropanesulfonamido)-1-oxopropan-2-yl)amino)-3-(naphthalen-2-yl)-1-oxopropan-2-yl)carbamoyl)-1-((S)-2-((S)-2-((tert-butoxycarbonyl)(methyl)amino)propanamido)-3,3-dimethylbutanoyl)pyrrolidin-3-yl)but-2-en-1-yl)oxy)phenyl)propanoate			ring closure, isolated yield ([3]; Grubbs I (2 portions), 1.1 mM, 55.0 °C): 64%
CNC(C)C(=O)NC(C(=O)N1CC2CC1C(=O)NC(Cc1ccc3ccccc3c1)C(=O)NC(C(=O)O)Cc1ccc(cc1)OCC=CCOC1CC(C(=O)NC(Cc3ccc4ccccc4c3)C(=O)NC(C(=O)O)Cc3ccc(cc3)C(=O)N2)N(C(=O)C(NC(=O)C(C)NC)C(C)(C)C)C1)C(C)(C)C (stereo not shown) [Example 32]	0.0162 µM		IC50 [2, 6]: 0.0361 µM
CN[C@@H](C)C(=O)N[C@H](C(=O)N1C[C@@H]2C[C@H]1C(=O)N[C@@H](Cc1ccc3ccccc3c1)C(=O)N[C@H](C(=O)O)COC/C=C/CO[C@H]1C[C@@H](C(=O)N[C@@H](Cc3ccc4ccccc4c3)C(=O)N[C@H](C(=O)O)CC(=O)N2)N(C(=O)[C@@H](NC(=O)[C@H](C)NC)C(C)(C)C)C1)C(C)(C)C [Example 42]	0.0746 µM	0.044 µM	
CN[C@@H](C)C(=O)N[C@H](C(=O)N1C[C@@H]2C[C@H]1C(=O)N[C@@H](Cc1ccc3ccccc3c1)C(=O)N[C@H](C(=O)O)Cc1ccc(cc1)OC/C=C/CO[C@H]1C[C@@H](C(=O)N[C@@H](Cc3ccc4ccccc4c3)C(=O)N[C@H](C(=O)O)CC(=O)N2)N(C(=O)[C@@H](NC(=O)[C@H](C)NC)C(C)(C)C)C1)C(C)(C)C [Example 41]	0.0457 µM	0.0467 µM	
CN[C@@H](C)C(=O)N[C@H](C(=O)N1C[C@@H]2C[C@H]1C(=O)N[C@@H](Cc1ccc3ccccc3c1)C(=O)N[C@H](C(=O)O)C/C=C/CO[C@H]1C[C@@H](C(=O)N[C@@H](Cc3ccc4ccccc4c3)C(=O)N[C@H](C(=O)O)CC(=O)N2)N(C(=O)[C@@H](NC(=O)[C@H](C)NC)C(C)(C)C)C1)C(C)(C)C [Example 43]	0.147 µM	0.0741 µM	
CNC(C)C(=O)NC(C(=O)N1CC2CC1C(=O)NC(Cc1ccc3ccccc3c1)C(=O)NC(C(=O)O)Cc1ccc(cc1)OCCCCOC1CC(C(=O)NC(Cc3ccc4ccccc4c3)C(=O)NC(C(=O)NS(C)(=O)=O)Cc3ccc(cc3)OCc3cn2nn3)N(C(=O)C(NC(=O)C(C)NC)C(C)(C)C)C1)C(C)(C)C (stereo not shown) [Example 8]			IC50 [1, 7]: 0.19 µM; IC50 [2, 8]: 0.0496 µM
CN[C@@H](C)C(=O)N[C@H](C(=O)N1C[C@@H]2C[C@H]1C(=O)N[C@@H](Cc1ccc3ccccc3c1)C(=O)N[C@H](C(=O)O)COC/C=C/CO[C@H]1C[C@@H](C(=O)N[C@@H](Cc3ccc4ccccc4c3)C(=O)N[C@H](C(=O)O)CCCC(=O)N2)N(C(=O)[C@@H](NC(=O)[C@H](C)NC)C(C)(C)C)C1)C(C)(C)C [Example 37]	0.0582 µM	0.033 µM	
CN[C@@H](C)C(=O)N[C@H](C(=O)N1C[C@@H]2C[C@H]1C(=O)N[C@@H](Cc1ccc3ccccc3c1)C(=O)N[C@H](C(=O)O)COC/C=C/CO[C@H]1C[C@@H](C(=O)N[C@@H](Cc3ccc4ccccc4c3)C(=O)N[C@H](C(=O)O)Cc3ccc(cc3)C(=O)N2)N(C(=O)[C@@H](NC(=O)[C@H](C)NC)C(C)(C)C)C1)C(C)(C)C [Example 39]	0.0411 µM	0.0313 µM	
CNC(C)C(=O)NC(C(=O)N1CC2CC1C(=O)NC(Cc1ccc3ccccc3c1)C(=O)NC(C(=O)O)Cc1ccc(cc1)OCC=CCOC1CC(C(=O)NC(Cc3ccc4ccccc4c3)C(=O)NC(C(=O)NS(C)(=O)=O)Cc3ccc(cc3)OCc3cn2nn3)N(C(=O)C(NC(=O)C(C)NC)C(C)(C)C)C1)C(C)(C)C (stereo not shown) [Example 5]			IC50 [1, 7]: 0.0715 µM; IC50 [2, 8]: 0.05 µM
CN[C@@H](C)C(=O)N[C@H](C(=O)N1C[C@@H]2C[C@H]1C(=O)N[C@@H](Cc1ccc3ccccc3c1)C(=O)N[C@H](C(=O)O)C/C=C/CO[C@H]1C[C@@H](C(=O)N[C@@H](Cc3ccc4ccccc4c3)C(=O)N[C@H](C(=O)O)CCC(=O)N2)N(C(=O)[C@@H](NC(=O)[C@H](C)NC)C(C)(C)C)C1)C(C)(C)C [Example 35]	0.0491 µM	0.0476 µM	
CNC(C)C(=O)NC(C(=O)N1CC2CC1C(=O)NC(Cc1ccc3ccccc3c1)C(=O)NC(C(=O)O)Cc1ccc(cc1)OCC=CCOC1CC(C(=O)NC(Cc3ccc4ccccc4c3)C(=O)NC(C(=O)O)CCC(=O)N2)N(C(=O)C(NC(=O)C(C)NC)C(C)(C)C)C1)C(C)(C)C (stereo not shown) [Example 33]	0.0216 µM		IC50 (His-BIR3 (241-356, XIAP)): 0.0847 µM; IC50 [4]: 0.0095 µM; IC50 [2, 6]: 0.0316 µM
CN[C@@H](C)C(=O)N[C@H](C(=O)N1C[C@@H]2C[C@H]1C(=O)N[C@@H](Cc1ccc3ccccc3c1)C(=O)N[C@H](C(=O)O)C/C=C/CO[C@H]1C[C@@H](C(=O)N[C@@H](Cc3ccc4ccccc4c3)C(=O)N[C@H](C(=O)O)CCCC(=O)N2)N(C(=O)[C@@H](NC(=O)[C@H](C)NC)C(C)(C)C)C1)C(C)(C)C [Example 38]	0.116 µM	0.0421 µM	
CN[C@@H](C)C(=O)N[C@@H](CC(=O)O)C(=O)N1C[C@@H]2C[C@H]1C(=O)N[C@@H](Cc1ccc3ccccc3c1)C(=O)N[C@H](C(=O)O)Cc1ccc(cc1)C(=O)N[C@H]1C[C@@H](C(=O)N[C@@H](Cc3ccc4ccccc4c3)C(=O)N[C@H](C(=O)O)Cc3ccc(cc3)OC/C=C/CO2)N(C(=O)[C@@H](NC(=O)[C@H](C)NC)C(C)(C)C)C1 [Example 64]			IC50 (His-BIR3 (241-356, XIAP)): 0.0366 µM; IC50 [4]: 0.0059 µM
